Where “and” joins values, the source holds several entries; their conditions need not be identical. Equal entries are not always repeated.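 Grown in 96-well plates, cells were treated for 48 hours with each compound at five concentrations. Insufficient inhibition: endpoint recorded as highest concentration tested. GI50 is the concentration that inhibits growth by half. At the TGI there is no net growth.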
Columns and labels:
Experiment in all cases: NCI anticancer screen, dose series, 48 h
[1] = tested on: UO-31 renal
[2] = tested on: HCT-15 colon
[3] = tested on: UACC-62 melanoma
[4] = tested on: HT29 colon
[5] = tested on: MDA-MB-231 breast
[6] = tested on: COLO 205 colon
[7] = tested on: TK-10 renal
[8] = tested on: SNB-19 CNS
[9] = tested on: NCI-H226 lung
[10] = tested on: LOX IMVI melanoma

Compound	GI50 [1]	TGI [1]	GI50 [2]	TGI [2]	GI50 [3]	TGI [3] [µM]	GI50 [4]	TGI [4]	GI50 [5]	TGI [5]	GI50 [6]	TGI [6]	GI50 [7]	TGI [7]	GI50 [8]	TGI [8]	GI50 [9]	TGI [9]	GI50 [10]	TGI [10]
COc1ccc(-c2nccn2-c2ccc(OC)cc2)cc1	23.3 µM	> 82 µM	23.1 µM	> 67.2 µM	13.9 µM	48.9	13 µM	32.9 µM	16.4 µM	57.5 µM	28.3 µM	> 100 µM	23 µM	> 75.9 µM	41.8 µM	> 100 µM	18.6 µM	> 70.8 µM	32.2 µM	97.9 µM
c1ccc2c(c1)[nH]c1c2cc[n+]2cc3c(cc12)CCCC3	14.4 µM	30.7 µM and 33 µM	23.3 µM	> 100 µM and 23.2 µM	2.02 µM	4.97	2.4 µM	9.74 µM and 19.6 µM	2.97 µM	10 µM and 12.7 µM	1.9 µM	5.45 µM and 3.56 µM	–	25.6 µM	–	12 µM and 9.35 µM	–	7.61 µM and 5.77 µM	2.03 µM	5.05 µM and 6.75 µM
ClC(Cl)=C1C(=C(Cl)Cl)C(Cl)(Cl)C1(Cl)Cl	–	9.07 µM	–	3.56 µM	–	5.36	–	7.85 µM	–	4.81 µM	–	10.8 µM	–	11 µM	–	29 µM	0.422 µM	1.89 µM	–	0.579 µM and 1.86 µM
CCc1ccc2c(c1)C(=O)c1c-2n(CCCN=[N+]=[N-])c(=O)c2cc([N+](=O)[O-])ccc12	> 50 µM	> 50 µM	> 50 µM	> 50 µM	> 50 µM	> 50	> 50 µM	> 50 µM	> 50 µM	> 50 µM	> 50 µM	> 50 µM	> 50 µM	> 50 µM	> 50 µM	> 50 µM	> 50 µM	> 50 µM	> 50 µM	> 50 µM
O=C(c1ccco1)c1c(C(F)(F)F)n([O-])c2ccc(C(F)(F)F)cc2[n+]1=O	0.205 µM	0.439 µM	0.291 µM	0.749 µM	1.11 µM	2.32	0.243 µM	0.674 µM	0.298 µM	0.768 µM	0.468 µM	0.987 µM	0.926 µM	2.3 µM	1.51 µM	2.92 µM	0.657 µM	1.55 µM	0.127 µM	0.257 µM
CCNC(=O)/C(=C/c1ccc(OC)cc1)c1cc(OC)c(OC)c(OC)c1	–	> 100 µM	–	> 100 µM	–	> 100	–	65.4 µM	–	> 86.1 µM	–	24.8 µM	–	> 69.7 µM	–	> 100 µM	–	88.7 µM	–	> 100 µM
COc1ccc(-c2nn(-c3cccc(Cl)c3)cc2-c2cc(-c3ccccc3)[nH]c(=O)c2C#N)cc1	–	–	27 µM	> 50 µM	2.26 µM	11.1	19.5 µM	> 50 µM	1.24 µM	10.4 µM	7.4 µM	> 50 µM	1.47 µM	4.6 µM	2.76 µM	38.6 µM	0.969 µM	> 50 µM	8.97 µM	> 50 µM
COc1cc2c(cc1OC)[C@H]1CN3CCC[C@H]3C=C1c1ccc(OC)c(O)c1-2	–	0.00324 µM	–	–	–	0.000267	–	0.0218 µM and 0.0484 µM	–	0.0523 µM	–	0.00119 µM	–	0.114 µM	–	–	–	0.0102 µM	–	0.000604 µM
CO[C@H]1Nc2c(ccc(C)c2O)C(=O)N2C=C(/C=C/C(N)=O)C[C@@H]12	–	0.0451 µM	–	0.758 µM	–	0.036	–	1.51 µM	–	0.0333 µM	–	0.1 µM	–	7.95 µM	–	> 58.2 µM	–	0.47 µM	–	1.29 µM
CC1(C)CN=C(NN=C(/C=C/c2ccc(C(F)(F)F)cc2)/C=C/c2ccc(C(F)(F)F)cc2)NC1	1.52 µM	2.94 µM	0.989 µM	2.45 µM	1.72 µM	3.31	0.785 µM	2.14 µM	0.477 µM	1.91 µM	1.35 µM	2.85 µM	1.91 µM	3.37 µM	1.5 µM	3.18 µM	1.51 µM	3.27 µM	1.39 µM	2.8 µM
O=C(/C=C/c1ccccc1)c1ccccc1	–	> 10 µM	–	> 10 µM	–	> 10	–	> 10 µM	–	> 10 µM	–	> 10 µM	–	> 10 µM	–	> 10 µM	–	> 10 µM	–	4.11 µM
COc1ccc(-c2ccc3c(N4CCOC[C@@H]4C)nc(N4CCOC[C@@H]4C)nc3n2)cc1CO	0.003 µM and < 0.01 µM	0.0758 µM and 0.0806 µM	0.00526 µM and 0.0301 µM	> 100 µM	0.00337 µM and 0.019 µM	–	0.00674 µM and 0.0385 µM	> 10 µM and 5.9 µM	0.00595 µM and 0.0364 µM	13.8 µM	0.00502 µM and 0.0474 µM	–	0.00484 µM and 0.0147 µM	0.237 µM and 0.212 µM	0.00693 µM and 0.0491 µM	> 100 µM	0.004 µM and 0.0139 µM	0.186 µM and 0.312 µM	0.00476 µM and 0.028 µM	> 100 µM
Cc1cc(Nc2nc(-c3cn(-c4ccc(Cl)cc4)nn3)nc3ccccc23)n[nH]1	1.65 µM	11.3 µM	2.17 µM	> 50 µM	–	–	23.5 µM	> 50 µM	17.7 µM	> 50 µM	38.2 µM	> 50 µM	6.69 µM	39.3 µM	> 50 µM	> 50 µM	> 50 µM	> 50 µM	9.7 µM	> 50 µM
O=C(/C(=C\c1c(-c2ccccc2)[nH]c2ccccc12)S(=O)(=O)c1ccccc1)c1ccccc1	> 100 µM	> 100 µM	–	–	8.95 µM	> 100	> 100 µM	> 100 µM	> 100 µM	> 100 µM	7.8 µM	> 100 µM	> 100 µM	> 100 µM	> 100 µM	> 100 µM	> 100 µM	> 100 µM	74.7 µM	> 100 µM
COC(=O)c1cc2c(o1)-c1nccc3c1c(nc1ccccc13)C2=O	5.49 µM	24.3 µM	1.57 µM	11.1 µM	–	–	8.01 µM	24.8 µM	5.1 µM	39.5 µM	14.9 µM	29.3 µM	22.9 µM	52.2 µM	2.28 µM	6.94 µM	8.08 µM	25.4 µM	3.61 µM	16.2 µM

Source: PubChem BioAssay (NCI)
